# Molecular target: T1, human GABA A receptor α5β3γ2 (Homo sapiens, UniProt P18507+P31644)
# T1 construct: expressed in transfected cells; host or cells: HEK293 cells, transiently transfected; membranes prepared from them
# Experiment: [3H]flumazenil competition binding, HEK293 cells expressing human GABA A α5β3γ2 receptors
# Conditions: human α5β3γ2 in HEK293 (transiently transfected), 0.5 nM [3H]flumazenil, mean of two determinations; read-out: Ki[nM] hα5
# Description: Membrane Preparation and Binding Assay
# The affinity of compounds at GABA A receptor subtypes was measured by competition for [3H]flumazenil (85 Ci/mmol; Roche) binding to HEK293 cells expressing rat (stably transfected) or human (transiently transfected) receptors of composition α1β3γ2, α2β3γ2, α3β3γ2 and α5β3γ2.
# Cell pellets were suspended in Krebs-tris buffer (4.8 mM KCl, 1.2 mM CaCl2, 1.2 mM MgCl2, 120 mM NaCl, 15 mM Tris; pH 7.5; binding assay buffer), homogenized by polytron for ca. 20 sec on ice and centrifuged for 60 min at 4° C. (50000 g; Sorvall, rotor: SM24=20000 rpm). The cell pellets were resuspended in Krebs-tris buffer and homogenized by polytron for ca. 15 sec on ice. Protein was measured (Bradford method, Bio-Rad) and aliquots of 1 mL were prepared and stored at −80° C.
# Radioligand binding assays were carried out in a volume of […] (96-well plates) which contained […] of cell memebranes, [3H]flumazenil at a concentration of 1 nM for α1, α2, α3 subunits and 0.5 nM for α5 subunits and the test compound in the range of […]. Nonspecific binding was defined by 10^−5 M diazepam and typically represented less than 5% of the total binding. Assays were incubated to equilibrium for 1 hour at 4° C. and harvested onto GF/C uni-filters (Packard) by filtration using a Packard harvester and washing with ice-cold wash buffer (50 mM Tris; pH 7.5). After drying, filter-retained radioactivity was detected by liquid scintillation counting. Ki values were calculated using Excel-Fit (Microsoft) and are the means of two determinations.
row,Molecule,Ki
1,"Cc1cc(COc2cccc3cc(C(=O)c4c(-c5ccc(Br)cc5)noc4C)oc23)on1 [Example 39, [3-(4-Bromo-phenyl)-5-methyl-isoxazol-4-yl]-[7-(3-methyl-isoxazol-5-ylmethoxy)-benzofuran-2-yl]-methanone]",63.8 nM
2,"COc1cccc2cc(C(=O)c3c(-c4ccccc4)noc3C)oc12 [Example 5, (7-Methoxy-benzofuran-2-yl)-(5-methyl-3-phenyl-isoxazol-4-yl)-methanone]",4 nM
3,"Cc1onc(-c2ccc(Br)cc2)c1C(=O)c1cc2cccc(F)c2o1 [Example 29, [3-(4-Bromo-phenyl)-5-methyl-isoxazol-4-yl]-(7-fluoro-benzofuran-2-yl)-methanone]",11.7 nM
4,"Cc1onc(-c2ccccc2)c1C(=O)c1cc2cccc(OCc3ccncc3)c2o1 [Example 10, (5-Methyl-3-phenyl-isoxazol-4-yl)-[7-(pyridin-4-ylmethoxy)-benzofuran-2-yl]-methanone]",27.9 nM
5,"COc1ccc2cc(C(=O)c3c(-c4ccc(Br)cc4)noc3C)oc2c1 [Example 41, [3-(4-Bromo-phenyl)-5-methyl-isoxazol-4-yl]-(6-methoxy-benzofuran-2-yl)-methanone]",3.1 nM
6,"Cc1cc(COc2cccc3cc(C(=O)c4c(-c5ccccc5)noc4C)oc23)on1 [Example 15, [7-(3-Methyl-isoxazol-5-ylmethoxy)-benzofuran-2-yl]-(5-methyl-3-phenyl-isoxazol-4-yl)-methanone]",18.9 nM
7,"Cc1onc(-c2ccccc2)c1C(=O)c1cc2cc(Br)ccc2o1 [Example 20, (5-Bromo-benzofuran-2-yl)-(5-methyl-3-phenyl-isoxazol-4-yl)-methanone]",41.6 nM
8,"Cc1onc(-c2ccccc2)c1C(=O)c1cc2cccc(OCc3cccnc3)c2o1 [Example 9, (5-Methyl-3-phenyl-isoxazol-4-yl)-[7-(pyridin-3-ylmethoxy)-benzofuran-2-yl]-methanone]",31.3 nM
9,"COc1cccc2oc(C(=O)c3c(-c4ccc(Br)cc4)noc3C)cc12 [Example 44, [3-(4-Bromo-phenyl)-5-methyl-isoxazol-4-yl]-(4-methoxy-benzofuran-2-yl)-methanone]",4.8 nM
10,"Cc1onc(-c2ccc(Br)cc2)c1C(=O)c1cc2cccc(O)c2o1 [Example 30, [3-(4-Bromo-phenyl)-5-methyl-isoxazol-4-yl]-(7-hydroxy-benzofuran-2-yl)-methanone]",17.4 nM
11,"Cc1onc(-c2ccc(Br)cc2)c1C(=O)c1cc2cccc(OCc3cccnc3)c2o1 [Example 35, [3-(4-Bromo-phenyl)-5-methyl-isoxazol-4-yl]-[7-(pyridin-3-ylmethoxy)-benzofuran-2-yl]-methanone]",36.4 nM
12,"COc1cc(OC)c2cc(C(=O)c3c(-c4ccccc4)noc3C)oc2c1 [Example 26, (4,6-Dimethoxy-benzofuran-2-yl)-(5-methyl-3-phenyl-isoxazol-4-yl)-methanone]",4.3 nM
13,"Cc1onc(-c2ccccc2)c1C(=O)c1cc2cc(OC(F)(F)F)ccc2o1 [Example 23, (5-Methyl-3-phenyl-isoxazol-4-yl)-(5-trifluoromethoxy-benzofuran-2-yl)-methanone]",10.1 nM
14,"Cc1onc(-c2ccccc2)c1C(=O)c1cc2cccc(OCC(=O)NC(C)C)c2o1 [Example 13, N-Isopropyl-2-[2-(5-methyl-3-phenyl-isoxazole-4-carbonyl)-benzofuran-7-yloxy]-acetamide]",1.8 nM
15,"Cc1onc(-c2ccc(Br)cc2)c1C(=O)c1cc2cccc(OCc3ccncc3)c2o1 [Example 36, [3-(4-Bromo-phenyl)-5-methyl-isoxazol-4-yl]-[7-(pyridin-4-ylmethoxy)-benzofuran-2-yl]-methanone]",35.9 nM
16,"CCOc1cccc2cc(C(=O)c3c(-c4ccccc4)noc3C)oc12 [Example 6, (7-Ethoxy-benzofuran-2-yl)-(5-methyl-3-phenyl-isoxazol-4-yl)-methanone]",6.5 nM

row,Molecule,Ki
1,"COc1ccc2oc(C(=O)c3c(-c4ccccc4)noc3C)cc2c1 [Example 22, (5-Methoxy-benzofuran-2-yl)-(5-methyl-3-phenyl-isoxazol-4-yl)-methanone]",4.6 nM
2,"Cc1onc(-c2ccccc2)c1C(=O)c1cc2c(ccc3ccccc32)o1 [Example 27, (5-Methyl-3-phenyl-isoxazol-4-yl)-naphtho[2,1-b]furan-2-yl-methanone]",13.7 nM
3,"Cc1onc(-c2ccccc2)c1C(=O)c1cc2cccc(OCc3ncnn3C)c2o1 [Example 14, (5-Methyl-3-phenyl-isoxazol-4-yl)-[7-(2-methyl-2H-[1,2,4]triazol-3-ylmethoxy)-benzofuran-2-yl]-methanone]",13.8 nM
4,"Cc1onc(-c2ccc(Br)cc2)c1C(=O)c1cc2cccc(OCc3ncnn3C)c2o1 [Example 38, [3-(4-Bromo-phenyl)-5-methyl-isoxazol-4-yl]-[7-(2-methyl-2H-[1,2,4]triazol-3-ylmethoxy)-benzofuran-2-yl]-methanone]",15.1 nM
5,"COc1cccc2cc(C(=O)c3c(-c4ccc(Br)cc4)noc3C)oc12 [Example 31, [3-(4-Bromo-phenyl)-5-methyl-isoxazol-4-yl]-(7-methoxy-benzofuran-2-yl)-methanone]",3.7 nM
6,"Cc1onc(-c2ccccc2)c1C(=O)c1cc2ccc(O)cc2o1 [Example 16, (6-Hydroxy-benzofuran-2-yl)-(5-methyl-3-phenyl-isoxazol-4-yl)-methanone]",3.7 nM
7,"Cc1onc(-c2ccccc2)c1C(=O)c1cc2cccc(O)c2o1 [Example 4, (7-Hydroxy-2-benzofuranyl)(5-methyl-3-phenyl-4-isoxazolyl)methanone]",6.9 nM
8,"Cc1onc(-c2ccc(Br)cc2)c1C(=O)c1cc2cccc(OCC(=O)NC(C)C)c2o1 [Example 37, 2-{2-[3-(4-Bromo-phenyl)-5-methyl-isoxazole-4-carbonyl]-benzofuran-7-yloxy}-N-isopropyl-acetamide]",2.3 nM
9,(5-Methoxy-benzofuran-2-yl)-(5-methyl-3-phenyl-isoxazol-4-yl)-methanone [Example 21],1.4 nM
10,"Cc1onc(-c2ccc(Br)cc2)c1C(=O)c1cc2ccc(O)cc2o1 [Example 40, [3-(4-Bromo-phenyl)-5-methyl-isoxazol-4-yl]-(6-hydroxy-benzofuran-2-yl)-methanone]",9.3 nM
11,"COc1ccc2cc(C(=O)c3c(-c4ccccc4)noc3C)oc2c1 [Example 17, (6-Methoxy-benzofuran-2-yl)-(5-methyl-3-phenyl-isoxazol-4-yl)-methanone]",3.5 nM
12,"Cc1onc(-c2ccccc2)c1C(=O)c1cc2cccc(Br)c2o1 [Example 3, (7-Bromo-benzofuran-2-yl)-(5-methyl-3-phenyl-isoxazol-4-yl)-methanone]",7.5 nM
13,"Cc1onc(-c2ccc(Br)cc2)c1C(=O)c1cc2cccc(OC(C)C)c2o1 [Example 33, [3-(4-Bromo-phenyl)-5-methyl-isoxazol-4-yl]-(7-isopropoxy-benzofuran-2-yl)-methanone]",32.9 nM
14,"Cc1onc(-c2ccccc2)c1C(=O)c1cc2cc(Cl)ccc2o1 [Example 19, (5-Chloro-benzofuran-2-yl)-(5-methyl-3-phenyl-isoxazol-4-yl)-methanone]",20 nM
15,"COc1cccc2oc(C(=O)c3c(-c4ccccc4)noc3C)cc12 [Example 25, (4-Methoxy-benzofuran-2-yl)-(5-methyl-3-phenyl-isoxazol-4-yl)-methanone]",10.6 nM
